We go through ten compounds from ChEMBL document CHEMBL1201862, “PubChem BioAssay data set” (2004).

Test systems include UACC-257; SN12C; K562; HT-29; SW-620; HL-60; SNB-19; NCI-H460; NCI-H23; SNB-75; SK-MEL-5; SF-295; MOLT-4; EKVX; RPMI-8226; SF-268; A549; UO-31; KM12; SK-OV-3.
Holding throughout (assay): growth of human tumour cells (NCI), 48 h

The structures appear in SMILES notation.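 Step 1: Grow cells in 96-well plates. Step 2: Expose to compound for 48 hours at 5 concentrations. Step 3: Interpolate endpoints linearly; if unreached, use highest concentration. GI50 marks 50% less growth.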 Activity calls are given as the source filed them. No stated cut-off is given here; in the data, active = GI50 up to about 1.1 µM and inactive = higher.

Turning to `O=C1ON(Cc2ccccc2)C(c2ccccc2)N1c1ccccc1` (stereo not given), the GI50 in the experiment on UACC-257 was > 100 µM (inactive); with SN12C, > 100 µM (inactive); in the experiment on K562, > 95.9 µM (inactive); in the experiment with HT-29, > 100 µM (inactive); in the experiment with SW-620, > 100 µM (inactive); in the experiment on HL-60, > 70.5 µM (inactive). Moreover, the GI50 with SNB-19 was > 100 µM (inactive); in the experiment on NCI-H460, > 100 µM (inactive); in the experiment on NCI-H23, > 100 µM (inactive); in the experiment on SNB-75 it was 62.7 µM (inactive); in the experiment with SK-MEL-5, > 100 µM (inactive); in the experiment with SF-295 it was > 64 µM (inactive). In addition, the GI50 is 71.6 µM (inactive) in the experiment with MOLT-4; > 100 µM (inactive) in the experiment on EKVX; > 100 µM (inactive) in the experiment with RPMI-8226; > 100 µM (inactive) in the experiment with SF-268; > 100 µM (inactive) with A549; > 100 µM (inactive) in the experiment on UO-31. Also, the GI50 in the experiment with KM12 and in the experiment on SK-OV-3 was > 100 µM (inactive) throughout.
For `O=NN1C(c2ccccc2)CCCC1c1ccccc1` (stereo not given), the GI50 is 72.1 µM (inactive) in the experiment with UACC-257; > 100 µM (inactive) in the experiment on SN12C; 35.9 µM (inactive) with K562; 22.9 µM (inactive) in the experiment with HT-29; > 92.7 µM (inactive) with SW-620; 26.8 µM (inactive) with HL-60. In addition, the GI50 with SNB-19 was > 100 µM (inactive); in the experiment on NCI-H460, 43.9 µM (inactive); with NCI-H23 it was 42 µM (inactive); in the experiment with SNB-75, 28.3 µM (inactive); in the experiment with SK-MEL-5, 49.4 µM (inactive); in the experiment with SF-295, 22.1 µM (inactive). The GI50 with MOLT-4 was 27.9 µM (inactive); in the experiment on EKVX, > 62.2 µM (inactive); with RPMI-8226, 21.7 µM (inactive); in the experiment with SF-268, > 100 µM (inactive); with A549, > 71 µM (inactive); in the experiment on UO-31 it was 42.4 µM (inactive). For the same compound, the figures for the GI50 in the experiment with KM12 and with SK-OV-3 were > 89.9 µM (inactive) and 31.9 µM (inactive), respectively.
For `C=CCN1/C(=C(\C#N)c2nc3ccccc3[nH]2)Sc2c1nc[nH]c2=O`, the GI50 in the experiment on UACC-257, in the experiment with SN12C, with K562, in the experiment on HT-29, in the experiment with SW-620 and with HL-60 was > 100 µM (inactive) throughout. The GI50 with SNB-19 was > 100 µM (inactive); with NCI-H460 it was > 100 µM (inactive); in the experiment on NCI-H23, > 100 µM (inactive); in the experiment on SNB-75 it was 31.4 µM (inactive); with SK-MEL-5, > 100 µM (inactive); in the experiment on SF-295 it was > 100 µM (inactive). Moreover, the GI50 in the experiment with MOLT-4, with EKVX, in the experiment with RPMI-8226, with SF-268, in the experiment on A549 and with UO-31 was > 100 µM (inactive) each time. Also, the GI50 with KM12 and with SK-OV-3 was > 100 µM (inactive) throughout.
Regarding `CCOC(=O)C1=C(C)N(C2OC(COC(=O)c3ccccc3)C(OC(=O)c3ccccc3)C2OC(=O)c2ccccc2)C(=S)NC1c1ccccc1` (stereo not given), the GI50 with UACC-257 was 33.5 µM (inactive); with SN12C, 40.4 µM (inactive); in the experiment on K562, 17.1 µM (inactive); in the experiment with HT-29 it was 50.6 µM (inactive); in the experiment on SW-620 it was 33.3 µM (inactive); with HL-60, 14.4 µM (inactive). In addition, the GI50 in the experiment on SNB-19 was 55.1 µM (inactive); in the experiment on NCI-H460 it was 31.4 µM (inactive); with NCI-H23, 29.1 µM (inactive); with SNB-75, 30.4 µM (inactive); in the experiment on SK-MEL-5, 18.4 µM (inactive); with SF-295, 61.7 µM (inactive). In addition, the GI50 in the experiment with MOLT-4 is 16.1 µM (inactive); with EKVX, 6.79 µM (inactive); in the experiment with RPMI-8226 it was 16.1 µM (inactive); with SF-268 it was 44.6 µM (inactive); in the experiment with A549 it was 37.4 µM (inactive); in the experiment on UO-31, 24.2 µM (inactive). Moreover, the GI50 was 50.2 µM (inactive) in the experiment with KM12 and 60.1 µM (inactive) with SK-OV-3.
Turning to `Clc1cc2c(c(CSC3=NCN(CC4CC4)CN3)c1)OCOC2`, the GI50 was 16.2 µM (inactive) with UACC-257; 28.6 µM (inactive) in the experiment on SN12C; 28.1 µM (inactive) with K562; 20.3 µM (inactive) with HT-29; 20.5 µM (inactive) in the experiment with SW-620; 13.6 µM (inactive) with HL-60. For the same compound, the GI50 in the experiment with SNB-19 was 26.1 µM (inactive); in the experiment on NCI-H460 it was 17.8 µM (inactive); in the experiment with NCI-H23, 17.1 µM (inactive); with SNB-75 it was 18.4 µM (inactive); with SK-MEL-5, 17.7 µM (inactive); with SF-295 it was 24.6 µM (inactive). Also, the GI50 is 22.5 µM (inactive) in the experiment on MOLT-4; 20 µM (inactive) in the experiment on EKVX; 12.1 µM (inactive) with RPMI-8226; 27.3 µM (inactive) in the experiment on SF-268; 22.8 µM (inactive) in the experiment on A549; 12.7 µM (inactive) in the experiment with UO-31. In addition, the values for the GI50 in the experiment on KM12 and in the experiment on SK-OV-3 were 30.8 µM (inactive) and 24.6 µM (inactive), respectively.
Consider `Cc1ccc(NC(=O)CC(=O)n2nc(-c3ccccc3)c(/N=N/c3ccccc3Cl)c2-c2ccccc2)cc1`, for which the GI50 in the experiment on UACC-257 is > 10 µM (inactive); with SN12C, > 10 µM (inactive); in the experiment with K562, 94.8 µM (inactive); in the experiment on HT-29 it was > 10 µM (inactive); with SW-620 it was 92 µM (inactive); in the experiment with HL-60 it was 0.458 µM (active). Also, the GI50 in the experiment on SNB-19 is 38.8 µM (inactive); in the experiment with NCI-H460, 75.5 µM (inactive); in the experiment with NCI-H23, 39.5 µM (inactive); in the experiment on SNB-75 it was 16.4 µM (inactive); in the experiment with SK-MEL-5, 67.1 µM (inactive); with SF-295, 48 µM (inactive). Also, the GI50 in the experiment on MOLT-4 is > 10 µM (inactive); in the experiment with EKVX it was 88.9 µM (inactive); with RPMI-8226 it was > 10 µM (inactive); in the experiment with SF-268 it was > 10 µM (inactive); with A549 it was 98.2 µM (inactive); with UO-31, > 10 µM (inactive). Further, the GI50 in the experiment with KM12 was > 10 µM (inactive); with SK-OV-3, 27 µM (inactive).
As for `COC(=O)c1ccc(/N=N/N(C)COc2ccc([N+](=O)[O-])cc2)cc1`, the GI50 in the experiment with UACC-257 is > 100 µM (inactive); in the experiment on SN12C it was > 100 µM (inactive); in the experiment on K562 it was 50.7 µM (inactive); in the experiment on HT-29, > 94 µM (inactive); in the experiment with SW-620, 64.7 µM (inactive); in the experiment on HL-60, 21.8 µM (inactive). In addition, the GI50 with SNB-19 is > 100 µM (inactive); with NCI-H460 it was 15.5 µM (inactive); with NCI-H23, > 100 µM (inactive); in the experiment on SNB-75 it was 54.6 µM (inactive); in the experiment with SK-MEL-5, > 96.8 µM (inactive); in the experiment with SF-295, > 77.4 µM (inactive). Besides, the GI50 is > 100 µM (inactive) in the experiment with MOLT-4; > 100 µM (inactive) in the experiment on EKVX; 38.7 µM (inactive) in the experiment with RPMI-8226; > 78.2 µM (inactive) with SF-268; > 100 µM (inactive) in the experiment on A549; > 100 µM (inactive) in the experiment with UO-31. Further, the GI50 is 81.8 µM (inactive) with KM12 and > 100 µM (inactive) in the experiment with SK-OV-3.
As to `COc1cc(/C=C/C(=O)C(C)(C)C)cc(OC)c1OC`, the GI50 in the experiment with UACC-257 was 28.1 µM (inactive); in the experiment on SN12C it was 34.3 µM (inactive); in the experiment on K562 it was 37.6 µM (inactive); in the experiment with HT-29 it was 38 µM (inactive); in the experiment on SW-620, 32.7 µM (inactive); in the experiment on HL-60, 21.1 µM (inactive). Also, the GI50 in the experiment on SNB-19 was > 100 µM (inactive); with NCI-H460 it was 25.5 µM (inactive); in the experiment on NCI-H23, 29.9 µM (inactive); in the experiment with SNB-75, 25.9 µM (inactive); with SK-MEL-5, 42.3 µM (inactive); with SF-295, 38.9 µM (inactive). Further, the GI50 in the experiment on MOLT-4 was 32.8 µM (inactive); with EKVX, 45.7 µM (inactive); in the experiment with RPMI-8226 it was 34.3 µM (inactive); in the experiment with SF-268, 33.9 µM (inactive); in the experiment on A549, 32.2 µM (inactive); in the experiment with UO-31, > 100 µM (inactive). Also, the GI50 with KM12 is 24.8 µM (inactive); in the experiment with SK-OV-3, 29.8 µM (inactive).
Take `COC(=O)C12CC3CC(CC(C(=O)O)(C3)C1)C2`: the GI50 with UACC-257, with SN12C, with K562, in the experiment on HT-29, with SW-620 and with HL-60 was > 100 µM (inactive) throughout. In addition, the GI50 in the experiment with SNB-19, in the experiment with NCI-H460, with NCI-H23, in the experiment on SNB-75, with SK-MEL-5 and in the experiment on SF-295 was > 100 µM (inactive) throughout. The GI50 in the experiment on MOLT-4, in the experiment on EKVX, in the experiment with RPMI-8226, in the experiment on SF-268, in the experiment on A549 and with UO-31 was > 100 µM (inactive) throughout. The GI50 in the experiment with KM12 and in the experiment on SK-OV-3 was > 100 µM (inactive) each time.
`CC(=O)O[C@]12CCCCCC1C1(O)C(O)CCCC[C@H]12` (stereo not given in full): the GI50 in the experiment on UACC-257, in the experiment with SN12C, in the experiment with K562, in the experiment with HT-29, in the experiment with SW-620 and with HL-60 was > 100 µM (inactive) each time. Further, the GI50 with SNB-19 was > 100 µM (inactive); in the experiment on NCI-H460, > 100 µM (inactive); in the experiment on NCI-H23, > 100 µM (inactive); in the experiment on SNB-75 it was 14.7 µM (inactive); in the experiment on SK-MEL-5 it was > 100 µM (inactive); in the experiment on SF-295 it was > 100 µM (inactive). Besides, the GI50 with MOLT-4, in the experiment on EKVX, in the experiment with RPMI-8226, in the experiment with SF-268, with A549 and with UO-31 was > 100 µM (inactive) in each case. The GI50 with KM12 and with SK-OV-3 was > 100 µM (inactive) throughout.
